Measurements reported in US11384062B2 (CombiPhos Catalysts, Inc., priority 2017, dated 2022).

Key:
HL-60(TB) = settings: 10 μM single dose; Leukemia HL-60(TB)
K-562 = settings: 10 μM single dose; Leukemia K-562
From the text: (§1) The test compounds were screened for anticancer activity at the Development Therapeutic Program (DTP), National Cancer Institute (NCI), USA, against a full NCI 59 cell line panel (six cell lines of leukemia, nine cell lines of lung cancer, seven cell lines of colon cancer, six cell lines of CNS cancer, nine cell lines of melanoma, seven cell lines of ovarian cancer, seven cell lines of renal cancer, two cell lines of prostate cancer, and six cell lines of breast cancer) representing nine human systems in total as leukemia, melanoma, and cancers of the lungs, colon, brain, breast, ovary, kidney, and prostate, according to the applied protocol. A primary in vitro one dose anticancer assay was performed at a single dose (10 μM) against the full NCI 59 cell line panel. The one dose data was reported as a mean graph of the percent growth of treated cells. The number reported for the single dose assay was growth relative to the no drug control and relative to the initial number of cells at time 0. […] A value of −40 means 40% lethality. A value of −100 means all cells are dead.

NCI-H226 = settings: 10 μM single dose; Non-Small Cell Lung Cancer NCI-H226
From the text: as §1

SF-539 = settings: 10 μM single dose; CNS Cancer SF-539
From the text: as §1

COLO 205 = settings: 10 μM single dose; Colon Cancer COLO 205
From the text: as §1

OVCAR-8 = settings: 10 μM single dose; Ovarian Cancer OVCAR-8
From the text: as §1

MALME-3M = settings: 10 μM single dose; Melanoma MALME-3M
From the text: as §1

UO-31 = settings: 10 μM single dose; Renal Cancer UO-31
From the text: as §1

MOLT-4 = settings: 10 μM single dose; Leukemia MOLT-4
From the text: as §1

A549/ATCC = settings: 10 μM single dose; Non-Small Cell Lung Cancer A549/ATCC
From the text: as §1

HOP-92 = settings: 10 μM single dose; Non-Small Cell Lung Cancer HOP-92
From the text: as §1

KM12 = settings: 10 μM single dose; Colon Cancer KM12
From the text: as §1

PC-3 = settings: 10 μM single dose; Prostate Cancer PC-3
From the text: as §1

SW-620 = settings: 10 μM single dose; Colon Cancer SW-620
From the text: as §1

UACC-62 = settings: 10 μM single dose; Melanoma UACC-62
From the text: as §1

MDA-MB-468 = settings: 10 μM single dose; Breast Cancer MDA-MB-468
From the text: as §1

SK-MEL-28 = settings: 10 μM single dose; Melanoma SK-MEL-28
From the text: as §1

NCI-H322M = settings: 10 μM single dose; Non-Small Cell Lung Cancer NCI-H322M
From the text: as §1

HCT-116 = settings: 10 μM single dose; Colon Cancer HCT-116
From the text: as §1

IGROV1 = settings: 10 μM single dose; Ovarian Cancer IGROV1
From the text: as §1

MDA-MB-435 = settings: 10 μM single dose; Melanoma MDA-MB-435
From the text: as §1

NCI-H23 = settings: 10 μM single dose; Non-Small Cell Lung Cancer NCI-H23
From the text: as §1

T-47D = settings: 10 μM single dose; Breast Cancer T-47D
From the text: as §1

DU-145 = settings: 10 μM single dose; Prostate Cancer DU-145
From the text: as §1

NCI-H522 = settings: 10 μM single dose; Non-Small Cell Lung Cancer NCI-H522
From the text: as §1

A498 = settings: 10 μM single dose; Renal Cancer A498
From the text: as §1

NCI-H460 = settings: 10 μM single dose; Non-Small Cell Lung Cancer NCI-H460
From the text: as §1

ACHN = settings: 10 μM single dose; Renal Cancer ACHN
From the text: as §1

BT-549 = settings: 10 μM single dose; Breast Cancer BT-549
From the text: as §1

TK-10 = settings: 10 μM single dose; Renal Cancer TK-10
From the text: as §1

MCF7 = settings: 10 μM single dose; Breast Cancer MCF7
From the text: as §1

OVCAR-4 = settings: 10 μM single dose; Ovarian Cancer OVCAR-4
From the text: as §1

SK-MEL-5 = settings: 10 μM single dose; Melanoma SK-MEL-5
From the text: as §1

SK-OV-3 = settings: 10 μM single dose; Ovarian Cancer SK-OV-3
From the text: as §1

SR = settings: 10 μM single dose; Leukemia SR
From the text: as §1

CCRF-CEM = settings: 10 μM single dose; Leukemia CCRF-CEM
From the text: as §1

UACC-257 = settings: 10 μM single dose; Melanoma UACC-257
From the text: as §1

Compound | Growth Percentage (HL-60(TB)) [%] | Growth Percentage (K-562) [%] | Growth Percentage (NCI-H226) [%] | Growth Percentage (SF-539) [%] | Growth Percentage (COLO 205) [%] | Growth Percentage (OVCAR-8) [%] | Growth Percentage (MALME-3M) [%] | Growth Percentage (UO-31) [%] | Growth Percentage (MOLT-4) [%] | Growth Percentage (A549/ATCC) [%] | Growth Percentage (HOP-92) [%] | Growth Percentage (KM12) [%] | Growth Percentage (PC-3) [%] | Growth Percentage (SW-620) [%] | Growth Percentage (UACC-62) [%] | Growth Percentage (MDA-MB-468) [%] | Growth Percentage (SK-MEL-28) [%] | Growth Percentage (NCI-H322M) [%] | Growth Percentage (HCT-116) [%] | Growth Percentage (IGROV1) [%] | further results
[2H]c1c([2H])c(C2([2H])C([2H])NC([2H])C([2H])C2[2H])c([2H])c([2H])c1-n1cc2cccc(C(N)=O)c2n1 (stereo not drawn) [Example 4, 2-(4-(piperidin-3-yl-2,3,4,5,6-d5)phenyl-2,3,5,6-d4)-2H-indazole-7-carboxamide] | 77.68 | 77.76 | 91.01 | 82.30 | 82.07 | 82.86 | 79.53 | 75.43 | 78.10 | 67.08 | 90.59 | 87.65 | 85.40 | 72.23 | 85.29 | 86.59 | 98.37 | 84.01 | 77.22 | 73.75 | Growth Percentage (MDA-MB-435): 92.97%; Growth Percentage (NCI-H23): 84.26%; Growth Percentage (T-47D): 98.04%; Growth Percentage (DU-145): 89.54%; Growth Percentage (NCI-H522): 87.37%; Growth Percentage (A498): 89.03%; Growth Percentage (NCI-H460): 76.94%; Growth Percentage (ACHN): 72.83%; Growth Percentage (BT-549): 99.58%; Growth Percentage (TK-10): 96.15%; Growth Percentage (MCF7): 64.30%; Growth Percentage (OVCAR-4): 98.64%; Growth Percentage (SK-MEL-5): 91.65%; Growth Percentage (SK-OV-3): 90.49%; Growth Percentage (SR): 47.47%; Growth Percentage (CCRF-CEM): 89.50%; Growth Percentage (UACC-257): 107.99%
[2H]C1([2H])NC([2H])([2H])C([2H])(c2ccc(-n3cc4cccc(C(N)=O)c4n3)cc2)C([2H])([2H])C1([2H])[2H] (racemic) [Example 3, 2-(4-(piperidin-3-yl-2,2,3,4,4,5,5,6,6-d9)phenyl)-2H-indazole-7-carboxamide] | 89.31 | 89.73 | 93.61 | 96.82 | 94.82 | 81.93 | 91.23 | 80.19 | 86.53 | 67.74 | 98.72 | 99.34 | 80.86 | 84.69 | 84.84 | 109.78 | 107.36 | 98.96 | 83.66 | 83.23 | Growth Percentage (MDA-MB-435): 98.88%; Growth Percentage (NCI-H23): 91.99%; Growth Percentage (T-47D): 98.94%; Growth Percentage (DU-145): 97.89%; Growth Percentage (NCI-H522): 83.10%; Growth Percentage (A498): 90.94%; Growth Percentage (NCI-H460): 86.91%; Growth Percentage (ACHN): 77.21%; Growth Percentage (BT-549): 113.02%; Growth Percentage (TK-10): 98.41%; Growth Percentage (MCF7): 75.22%; Growth Percentage (OVCAR-4): 106.31%; Growth Percentage (SK-MEL-5): 93.38%; Growth Percentage (SK-OV-3): 96.60%; Growth Percentage (SR): 59.44%; Growth Percentage (CCRF-CEM): 87.92%; Growth Percentage (UACC-257): 97.56%
[2H]c1c([2H])c(-n2nc3c(C(N)=O)cccc3c2[2H])c([2H])c([2H])c1C1CCCNC1 (racemic) [Example 11, 2-(4-(piperidin-3-yl)phenyl-2,3,5,6-d4)-2H-indazole-3-d-7-carboxamide] | 69.13 | 87.94 | 92.42 | 77.48 | 79.11 | 84.66 | 92.14 | 79.89 | 71.06 | 70.16 | 79.03 | 83.99 | 68.67 | 72.01 | 76.75 | 87.13 | 101.33 | 85.94 | 81.62 | 74.29 | Growth Percentage (MDA-MB-435): 91.99%; Growth Percentage (NCI-H23): 82.01%; Growth Percentage (T-47D): 90.97%; Growth Percentage (DU-145): 87.51%; Growth Percentage (NCI-H522): 89.79%; Growth Percentage (A498): 83.22%; Growth Percentage (NCI-H460): 80.76%; Growth Percentage (ACHN): 72.39%; Growth Percentage (BT-549): 91.44%; Growth Percentage (TK-10): 102.70%; Growth Percentage (MCF7): 69.21%; Growth Percentage (OVCAR-4): 103.47%; Growth Percentage (SK-MEL-5): 91.06%; Growth Percentage (SK-OV-3): 94.12%; Growth Percentage (SR): 37.42%; Growth Percentage (CCRF-CEM): 68.34%; Growth Percentage (UACC-257): 102.12%
